The text below walks through data of patent US20080312435A1, “Imine Compound” (TAISHO PHARMACEUTICAL CO., LTD., priority 2004, published 2008).

SMILES strings stand for the structures.

As to `O=C(/N=c1\ccccn1CC1CC1)C(F)(F)F`, the melting point is 90 to 91 °C. Take `O=C(/N=c1\ccccn1CC1CC1)c1cc(Cl)ccc1Cl`: the melting point was 53.5 to 54.5 °C. Regarding `Cc1s/c(=N\C(=O)C(F)(F)C(F)(F)C(F)(F)F)n(CC2CC2)c1C`, the melting point was 92 to 94 °C. As for `CCc1s/c(=N\C(=O)c2cccc(C(F)(F)F)c2F)n(CC)c1C`, the figure is 115 to 117 °C; as for `O=C(/N=c1\ccccn1CC1CC1)c1cccc(F)c1C(F)(F)F`, 88 to 89 °C. As for `Cc1c(C(C)C)s/c(=N\C(=O)c2cccc(C(F)(F)F)c2F)n1C`, the figure is 89 to 91 °C. `Cc1c(C(C)C)s/c(=N\C(=O)c2cccc(C(F)(F)F)c2)n1CC1CC1`: the melting point lay in the range of 89 to 91 °C. As for `Cc1ccccc1C(=O)/N=c1\sc(C(C)(C)C)c(C)n1C`, the figure is 173 to 175 °C; as for `Cc1c(C(C)(C)C)s/c(=N\C(=O)c2cccc(Br)c2)n1C`, 173 to 175 °C; as for `Cc1c(C(C)(C)C)s/c(=N\C(=O)c2cccc(N(C)C)c2)n1C`, 189 to 190 °C. Molecule `Cc1c(C(C)(C)C)s/c(=N\C(=O)c2cccc(C#N)c2)n1C` came in with a melting point of 131 to 133 °C.

For `COC(=O)c1cccc(C(=O)/N=c2\sc(C(C)(C)C)c(C)n2C)c1`, the melting point was 192 to 193 °C.

The molecule `Cc1c(C(C)(C)C)s/c(=N\C(=O)c2cccc(C(=O)O)c2)n1C` showed a melting point of 250 to 252 °C. Consider `COc1ccc(C(=O)/N=c2\sc(C(C)(C)C)c(C)n2C)c(OC)c1`, for which the melting point was in the range of 138 to 140 °C. The molecule `Cc1c(C(C)(C)C)s/c(=N\C(=O)c2cccnc2)n1C.Cl` had a melting point of 202 to 203 °C.

`O=C(/N=c1\ccccn1CCc1ccccc1)c1cccc(C(F)(F)F)c1F` had a melting point of 117 to 118 °C. For the molecule `O=C(/N=c1\ccccn1CC1CC1)c1cc(F)ccc1C(F)(F)F`, the melting point lay within 88.5 to 89 °C. For the molecule `CCn1c(C)c(C(C)(C)C)s/c1=N\C(=O)C(F)(F)C(F)(F)C(F)(F)F`, the melting point was 113 to 115 °C.

The molecule `CCCn1c(C)c(C(C)(C)C)s/c1=N\C(=O)c1cccc(C(F)(F)F)c1` yielded a melting point of 172 to 174 °C. Consider `Cc1c(C(C)(C)C)s/c(=N\C(=O)c2ccccc2)n1CC1CC1`, for which the melting point was 106 to 107 °C. For the molecule `O=C(/N=c1\ccccn1CC1CC1)c1cc(C(F)(F)F)ccc1F`, the melting point was 127 to 127.5 °C. Under `Cc1c(C(C)(C)C)s/c(=N\C(=O)c2ccccc2O)n1CC1CC1` stands 178 to 180 °C; under `CCN(CC)c1cccc(C(=O)/N=c2\sc(C(C)(C)C)c(C)n2CC2CC2)c1`, 89 to 90 °C. As for `CCN(CC)c1ccc(C(=O)/N=c2\sc(C(C)(C)C)c(C)n2CC2CC2)cc1`, the figure is 134 to 136 °C; as for `Cc1c(C(C)(C)C)s/c(=N\C(=O)c2cccc(N3CCOCC3)c2)n1CC1CC1`, 114 to 115 °C. With `Cc1c(C(C)(C)C)s/c(=N\C(=O)c2ccc(F)c(C(F)(F)F)c2)n1CC1CC1`, the melting point lay within 123 to 124 °C. As for `Cc1c(C(C)(C)C)s/c(=N\C(=O)c2cc(F)cc(C(F)(F)F)c2)n1CC1CC1`, the figure is 100 to 102 °C. `Cc1c(C(C)(C)C)s/c(=N\C(=O)c2ccc(Cl)c(C(F)(F)F)c2)n1CC1CC1` showed a melting point of 122 to 124 °C. As for `Cc1c(C(C)(C)C)s/c(=N\C(=O)c2cc(C(F)(F)F)ccc2N2CCOCC2)n1CC1CC1`, the figure is 86 to 87 °C.

For `Cc1c(C(C)(C)C)s/c(=N\C(=O)c2ccc(F)c(C#N)c2)n1CC1CC1`, the melting point lay in the range of 195 to 197 °C. For the molecule `Cc1ccc(C(=O)/N=c2\sc(C(C)(C)C)c(C)n2CC2CC2)cn1`, the melting point is 228 to 230 °C. `Cc1c(C(C)(C)C)s/c(=N\C(=O)c2cncc(Br)c2)n1CC1CC1` had a melting point of 152 to 154 °C. In the case of `O=C(/N=c1\ccc(C(F)(F)F)cn1CC1CC1)c1cc(C(F)(F)F)ccc1F`, the melting point lay within 109 to 110 °C. `Cc1c(C(C)(C)C)s/c(=N\C(=O)c2cccnc2OC(C)C)n1CC1CC1` had a melting point of 151 to 153 °C. In turn, `Cc1c(C(C)(C)C)s/c(=N\C(=O)c2cccnc2OC2C=CC=CC2)n1CC1CC1` (stereo not drawn) yielded a melting point of 111 to 114 °C. `COc1cc(C(=O)/N=c2\sc(C(C)(C)C)c(C)n2CC2CC2)c(OC)nn1` showed a melting point of 124 to 126 °C. Under `Cc1c(C(C)(C)C)s/c(=N\C(=O)c2cccnc2N2CCCC2)n1CC1CC1` stands 97 to 98 °C; under `CCCc1c(C(=O)/N=c2\sc(C(C)(C)C)c(C)n2CC2CC2)cnn1-c1ccccc1`, 104 to 105 °C; under `Cc1c(C(C)(C)C)s/c(=N\C(=O)C2CCC2)n1CC1CC1`, 189 to 191 °C.

Molecule `Cc1c(C(C)(C)C)s/c(=N\C(=O)Cc2ccccc2)n1CC1CC1` had a melting point of 92 to 94 °C.

As for `Cc1c(C(C)(C)C)s/c(=N\C(=O)Cc2cccs2)n1CC1CC1`, the melting point was in the range of 157 to 159 °C. Consider `CCOC(=O)c1s/c(=N\C(=O)c2cccc(C(F)(F)F)c2)n(CC2CC2)c1C`, for which the melting point was in the range of 115 to 116 °C. `Cc1c(C(=O)NC(C)C)s/c(=N\C(=O)c2cccc(C(F)(F)F)c2)n1CC1CC1` had a melting point of 212 to 214 °C. `Cc1c(C(=O)N2CCCC2)s/c(=N\C(=O)c2cccc(C(F)(F)F)c2)n1CC1CC1` gave a melting point of 125 to 127 °C. As for `CC(C)c1s/c(=N\C(=O)c2cncc(Br)c2)n(CC2CC2)c1C(F)(F)F`, the figure is 139 to 141 °C; as for `CCn1c(C)c(Cl)s/c1=N\C(=O)c1cccc(C(F)(F)F)c1F`, 158 to 160 °C. Consider `C=CCn1c(-c2ccccc2)c(-c2ccccc2)s/c1=N\C(=O)c1ccccc1`, for which the melting point fell in the range of 141 to 143 °C. Under `Cc1ccccc1C(=O)/N=c1\sc2ccccc2n1CC1CC1` stands 115 to 117 °C; under `CN(C)c1cccc(C(=O)/N=c2\sc3ccccc3n2CC2CC2)c1`, 156 to 158 °C. `Cc1ncccc1C(=O)/N=c1\sc2ccccc2n1CC1CC1` returned a melting point of 181 to 183 °C. Regarding `Cc1cc2s/c(=N\C(=O)c3ccccc3C)n(CC3CC3)c2cc1C`, the melting point is 160 to 161 °C. For the molecule `Cc1ccccc1C(=O)/N=c1\sc2cc(F)ccc2n1CC1CC1`, the melting point was in the range of 143 to 145 °C. The molecule `Cc1ccccc1C(=O)/N=c1/sc2cccc(C)c2n1CC1CC1` had a melting point of 133 to 134 °C. As for `Cc1ccccc1C(=O)/N=c1/sc2cc(F)cc(F)c2n1CC1CC1`, the figure is 146 to 148 °C; as for `COCCn1/c(=N/C(=O)c2cccc(C(F)(F)F)c2F)cc(C)n1C`, 144 to 145 °C; as for `COCCCn1/c(=N/C(=O)c2cccc(C(F)(F)F)c2F)cc(C)n1C`, 88 to 90 °C. `Cn1c(C(C)(C)C)c/c(=N\C(=O)C(F)(F)F)n1CC1CC1`: the melting point lay within 122 to 124 °C. As for `Cn1c(C(C)(C)C)c/c(=N\C(=O)c2cccc(OC(F)(F)C(F)F)c2)n1CC1CC1`, the figure is 110 to 111 °C. Take `Cn1c(C(C)(C)C)c/c(=N\C(=O)c2cccc(Cl)c2Cl)n1CC1CC1`: the melting point lay within 158 to 159 °C. `Cc1cccc(C(=O)/N=c2\cc(C(C)(C)C)n(C)n2CC2CC2)c1I` came in with a melting point of 147 to 148 °C. As for `Cc1c(Br)cccc1C(=O)/N=c1\cc(C(C)(C)C)n(C)n1CC1CC1`, the figure is 138 to 139 °C; as for `Cc1c(I)cccc1C(=O)/N=c1\cc(C(C)(C)C)n(C)n1CC1CC1`, 138 to 140 °C; as for `Cc1ccc(C(=O)/N=c2\cc(C(C)(C)C)n(C)n2CC2CC2)c(Br)c1`, 153 to 154 °C. As for `COc1cc(Cl)ccc1C(=O)/N=c1\cc(C(C)(C)C)n(C)n1CC1CC1`, the figure is 128 to 129 °C. Molecule `COc1ccc(C(F)(F)F)cc1C(=O)/N=c1\cc(C(C)(C)C)n(C)n1CC1CC1` registered a melting point of 99 to 101 °C.

`Cc1ccc(F)cc1C(=O)/N=c1\cc(C(C)(C)C)n(C)n1CC1CC1`: the melting point is 161 to 162 °C. Under `Cc1ccc(C(=O)/N=c2\cc(C(C)(C)C)n(C)n2CC2CC2)cc1Cl` stands 135 to 136 °C; under `Cc1c(C(C)(C)C)n(C)n(CC2CC2)/c1=N/C(=O)c1cccc(C(F)(F)F)c1F`, 149 to 150 °C. As to `Cn1c(C2CC2)c/c(=N\C(=O)c2cccc(C(F)(F)F)c2F)n1-c1ccccc1`, the melting point fell in the range of 168.5 to 169.5 °C. Under `Cn1c(C(F)(F)F)c(-c2ccccc2)/c(=N\C(=O)c2cccc(C(F)(F)F)c2F)n1C` stands 169.5 to 170 °C. In turn, `Cn1cccc/c1=N\C(=O)c1cccc(C(F)(F)F)c1F` came in with a melting point of 146 to 147 °C.

`Cn1c(C(C)(C)C)c/c(=N\C(=S)Nc2ccc(F)cc2)n1CC1CC1`: the melting point was 147.5 to 149.5 °C. As for `Cc1ccc(C(F)(F)F)cc1C(=O)/N=c1\sc(C(C)(C)C)nn1CC1CC1`, the figure is 63 to 65 °C. As for `CC(C)(C)c1nn(CC2CC2)/c(=N/C(=O)c2cc(C(F)(F)F)ccc2F)s1`, the figure is 47 to 49 °C. Under `COc1ccncc1C(=O)/N=c1\sc(C(C)(C)C)nn1CC1CC1` stands 94 to 95 °C; under `CCn1cccc/c1=N\C(=O)c1cccc(C(F)(F)F)c1F`, 93 to 95 °C; under `O=C(/N=c1\sccn1CC1CC1)c1cccc(C(F)(F)F)c1F`, 96 to 97 °C. Take `CCn1c(C)cs/c1=N\C(=O)c1cccc(C(F)(F)F)c1F`: the melting point was in the range of 48 to 50 °C. Molecule `Cc1cn(C)/c(=N/C(=O)c2cccnc2)s1` yielded a melting point of 173 to 174 °C.

As for `Cc1s/c(=N\C(=O)c2cccc(C(F)(F)F)c2)n(C)c1C`, the melting point was in the range of 110 to 111 °C. Molecule `CCCCn1cccc/c1=N\C(=O)c1cccc(C(F)(F)F)c1F` gave a melting point of 51 to 52 °C.

As for `Cc1s/c(=N\C(=O)c2cc(Cl)ccc2Cl)n(CC2CC2)c1C`, the melting point lay within 113 to 115 °C. In turn, `Cc1s/c(=N\C(=O)c2ccc(Br)cc2F)n(CC2CC2)c1C` yielded a melting point of 154 to 155 °C. Under `CCC(CC)C(=O)/N=c1\sc(C)c(C)n1CC1CC1` stands 67 to 69 °C.
